Data as given in patent publication US20240247048A1 (EMORY UNIVERSITY, priority 2021, published 2024).
Entries after “also recorded” stand apart in the source; their conditions may differ.

Tests used:
[1] = tested on: luciferase+ mouse T cells; assay: proliferation of luciferase+ mouse T cells in vitro (plate-bound anti-CD3, luminescence); format: cell-based; details: 96 hours; for lowest concentration of peptide that led to maximal luminescence: luc+ T cell proliferation, plate-bound anti-CD3; for luc+ T cell proliferation: relative luminescence, quadruplicate wells, plate-bound anti-CD3, daily addition of peptide, at the concentration in brackets
From the text: (§1) VIP-related peptides tested in silico for predicted binding affinities to human VPAC1 and VPAC2 (Creative Biolabs). Docking scores show predicted free energy change associated with peptide binding. Note that a greater negative score is predicted to be associated with higher binding affinity. Based upon an initial screen of 300 peptides for binding affinity to VPAC1 and screening a subset of 100 peptides for binding affinity to VPAC2, a select group of peptides were synthesized and tested for their ability to stimulate proliferation of luciferase+ mouse T cells in vitro. The lowest concentration of peptide that led to maximal luminescence is shown. Proliferation data represents the relative level of luminescence from quadruplicate wells containing 1×10E5 T cells/well in a 96 well tissue culture plate stimulated for 96 hours with plate-bound anti-CD3 antibodies. Confirmatory in vivo testing of select peptides was then performed based upon their ability to induce autologous anti-leukemia responses in C57Bl/6 mice that had been previously injected with 1×10E6 C1498 acute myeloid leukemia cells. Leukemia cells were injected on day 0, 10 ug peptide was injected s.c. daily on days 6-12. The predicted binding affinity to VPAC1 and/or VPAC2 was associated with enhanced activity in stimulating mouse T cell proliferation and anti-leukemia activity in mice.

[2] = tested on: C1498 acute myeloid leukemia cells; assay: survival of mice engrafted with C1498 acute myeloid leukemia; format: in vivo, mouse; parameters: percentage of survival: concentration or dose not given beside the values; details: for Median survival time / Percentage alive day 60: 1 x 10E6 C1498 i.v. on day 0, 10 ug peptide s.c. daily on days 6-12
Procedure: B6 (CD45.2, H-2K^b) mice were administered C1498 1×10^6/mouse through tail vein. […] Survival of the mice was observed daily. Data were pooled from 3 replicated experiments.
B6 (CD45.2, H-2K^b) mice were administered C1498 1×10^6/mouse through tail vein. […] Survival of the mice was observed daily. Survival of the mice were pooled from 3 replicated experiments and analyzed by log-rank test compared with the survival of mice treated with scrambled peptide.
B6 SJL (CD45.1, H-2K^b) mice were administered C1498 (CD45.2 H-2K^b) 1×10^6/mouse through tail vein. […] The mice were bled weekly from the submandibular vein, starting from day 6, prior to the administration of peptides. Antibodies to CD45.2 identified myeloid leukemia cells and antibodies to CD45.1 identified murine leukocytes of the host.
as §1
To test the ability of the disclosed VIP-R antagonists to effect survival to acute myeloid leukemia survival, B6 (CD45.2, H-2K^b) mice were administered C1498 1×10^6/mouse through tail vein. […] Survival of the mice was observed daily.

[3] = toxicity in immunologically naive C57BL/6 mice; format: in vivo; details: for H&E staining of colon and lung tissue: FIG. 29c-29d; for overall survival, activity levels or weight of mice: daily s.c. for 10 days, same dose as anti-cancer protocol, FIG. 29a; for toxicity in C57BL/6 mice: daily s.c. injection for 10 days, analyzed day 11, FIG. 29
From the text: C57BL/6 mice received daily subcutaneous injection of ANT008 or ANT308 for 10 days (n=5 per group) and analyzed for evidence of toxicity on day 11. (FIG. 29A) Body weight in grams during the duration of drug administration; (FIG. 29B) Number of WBCs, RBCs and platelets in blood as per complete blood count (left) proportions of T cells, B cells, NK cells, DCs and MDSCs in spleen as identified by flow cytometry (right) are plotted. Representative H&E stained sections of (FIG. 29C) colon (top), lungs (bottom) and (FIG. 29D) liver are shown. Arrows in FIG. 29D show the focal hepatic lesions in liver. […] C57BL/6 mice received daily subcutaneous injection of 30 ug of ANT308 (n=6) or a combination of 30 ug of ANT308 daily along with 200 ug of anti-PD1 every 3 days (n=6), for a duration of 4 days. Mice receiving scrambled peptide and isotype IgG served as control (n=4). (FIG. 29E) Weight of the mice, (FIG. 29F) complete blood count (CBC) and (FIG. 29G) serum chemistries after 4 days of treatment are plotted. P values in FIGS. 29B, 29E, 29F, and 29G were calculated by ANOVA followed by Dunnett's post-test. Error bars represent mean and standard deviation. *p<0.05, **p<0.01.
To evaluate the effect of VIP-R-mediated signaling inhibition on the growth of PDAC tumors in vivo, three different murine PDAC tumors (KPC-Luc, MT5 and Panc02) were implanted in syngeneic immunocompetent C57BL/6 mice. After tumors were palpable, mice were randomly allocated to treatment with VIP-R antagonists and/or anti-PD-1 monoclonal antibody, or control groups that received scrambled peptide or isotype-matched IgG. […] In addition to the antitumor efficacy, the safety of VIP-R antagonists in immunologically naïve mice was confirmed (FIGS. 29a-29g).
Histology. All tissues for histology were fixed at 4° C. for 2-3 days in 4% paraformaldehyde in PBS, embedded in paraffin and cut into 5-μm thick sections. Slides were deparaffinized with EZ-Prep (#05279771001, Ventana, Tucson, AZ) and then were antigen retrieved for 64 minutes with CC1 reagent (#950-500, Ventana, Tucson, AZ). Mouse anti-VPAC1 and anti-VPAC2 from Sigma Aldrich (St. Louis, MO) diluted at 1:500 or rabbit anti-cytokeratin-19 (Abcam, Cambridge, MA) diluted at 1:500 were applied and incubated for 40 minutes. DISCOVERY OmniMap anti-mouse or anti-rabbit HRP was applied and incubated for 12 minutes. The detection was completed in combination with DISCOVERY ChromoMap DAB kit as per manufacturer's recommendations. Pancreas harvested from mice with orthotopically implanted KPC-Luc tumors or colon, liver and inflated lungs harvested from naïve C57BL/6 mice receiving ANT008 or ANT308 were formalin-fixed and paraffin embedded before being stained with H&E (Leica 560 MX, Wetzlar, Germany) or Masson's Trichrome (Polyscientific Inc., Bay Shore, NY). All slides were dehydrated, cover-slipped and scanned on Hamamatsu Nanozoomer 2.0 HT at 40× and reviewed by a pathologist.

Row | Sequence | lowest concentration of peptide that led to maximal luminescence [1] [µM] | luc+ T cell proliferation [1] | Median survival time [2] [days] | Percentage alive day 60 [2] [%] | percentage of survival ([2]; FIG. 3, leukemia-bearing mice treated with peptide) [%] | H&E staining of colon and lung tissue [3] | overall survival, activity levels or weight of mice [3] | toxicity in C57BL/6 mice [3] | clearance of C1498 leukemia and long-term survival ([2]; FIGS. 39 and 40)
1 | KPRRPYTDNYTRLRKQMAVKKYLNLILN [ANT008] | 1 | 185% + 24% | 35 | 16 | 16 | did not show lymphocytic infiltrates or histopathology to suggest auto-immunity | did not affect | no adverse toxicity | –
2 | KPRRPYTSDYTRLRKQMAVKKYLNLILN [ANT308] | 3 | 109% + 8% | 34 | 40 | – | did not show lymphocytic infiltrates or histopathology to suggest auto-immunity | did not affect | no adverse toxicity | dose-dependent clearance; also recorded: schedule-dependent clearance
